Laboratory results: patent publication US20050239656A1, “Pyridine compounds or salts thereof and herbicides containing the same” (priority 2002, published 2005)

Key:
barnyardgrass [1] = assay: Test Example 2: soil surface treatment, upland pot test; assay type: in vivo, Echinochloa crus-galli L.
Description: (§1) Upland field soil was put into a 1/170,000 ha pot, and seed of various plants (barnyardgrass, crabgrass, green foxtail, redroot pigweed, prickly sida, velvetleaf, rice, wheat, corn, soybean) were sown. On the 1st day after the sowing, a wettable powder or emulsifiable concentrate having the compound of the present invention formulated in accordance with a usual formulation method, was weighed so that the active ingredient would be a predetermined amount, and diluted with water in an amount of 1,500 L/ha. The herbicide thus adjusted was applied by a small size sprayer for soil surface treatment. On the 20th to 28th days after the application of the herbicide, the growth of the respective plants was visually observed, and the herbicidal effects were evaluated by the growth controlling degrees (%) ranging from 0 (equivalent to the non-treated plot) to 100 (complete kill), whereby the results shown in Table 4, were obtained.

crabgrass = assay: as above; assay type: in vivo, Digitaria sanguinalis L.
Description: as §1

green foxtail = assay: as above; assay type: in vivo, Setaria viridis L.
Description: as §1

redroot pigweed = assay: as above; assay type: in vivo, Amaranthus retroflexus L.
Description: as §1

prickly sida = assay: as above; assay type: in vivo, Sida spinosa L.
Description: as §1

velvetleaf = assay: as above; assay type: in vivo, Abutilon theophrasti MEDIC.
Description: as §1

rice = assay: as above; assay type: in vivo, Oryza sativa L.
Description: as §1

corn = assay: as above; assay type: in vivo, Zea mays L.
Description: as §1

soybean = assay: as above; assay type: in vivo, Glycine max Merr.
Description: as §1

barnyardgrass [2] = assay: Test Example 3: paddy pot test, application under submerged conditions; assay type: in vivo, Echinochloa crus-galli L.; conditions: submerged application at 0.5 leaf stage, visually observed 14 days after application, 0 = non-treated, 100 = complete kill
Description: (§2) Paddy field soil was put into a 1/1,000,000 ha pot, and seed of barnyardgrass and japanese bulrush were sown and slightly covered with soil. Then, the pot was left to stand still in a greenhouse in a state where the depth of flooding water was from 0.5 to 1 cm, and one day or two days later, tubers of japanese ribbon wapato were planted. Thereafter, the depth of flooding water was maintained at a level of from 3 to 4 cm, and when barnyardgrass and japanese bulrush reached a 0.5 leaf stage and japanese ribbon wapato reached a primary leaf stage, an aqueous diluted solution of a wettable powder or emulsifiable concentrate having the compound of the present invention formulated in accordance with a usual formulation method, was uniformly applied under submerged conditions by a pipette so that the dose of the active ingredient would be at a predetermined level. On the 14 days after the application of the herbicide, the growth of barnyard grass, japanese burlrush and japanese ribbon wapato was visually observed and on the 21st day after the application of the herbicide, the growth of rice was visually observed, and the herbicidal effects were evaluated by the growth-controlling degrees (%) ranging from 0 (equivalent to the non-treated plot) to 100 (complete kill), whereby the results shown in Table 5 were obtained.

japanese bulrush = assay: as above; assay type: in vivo, Scirpus juncoides; conditions: submerged application at 0.5 leaf stage, visually observed 14 days after application, 0 = non-treated, 100 = complete kill
Description: as §2

rice (var. Nihonbare) = assay: Test Example 3: paddy pot test, transplanted rice; assay type: in vivo, Oryza sativa L.; conditions: applied 4th day after transplantation, visually observed 21st day after application, 0 = non-treated, 100 = complete kill
Description: as §2, with “On the other hand, paddy field soil was put into a 1/1,000,000 ha pot and puddled and leveled, and the depth of flooding water was from 3 to 4 cm. Next day, rice (var. Nihonbare) of 2 leaf stage was transplanted in a depth of 3 cm. On the 4th day after the transplantation, the compound of the present invention was applied in the same manner as described above. On the 14 days” for “On the 14 days”

japanese ribbon wapato = assay: Test Example 3: paddy pot test, application under submerged conditions; assay type: in vivo, Sagittaria pygniaea; conditions: submerged application at primary leaf stage, visually observed 14 days after application, 0 = non-treated, 100 = complete kill
Description: as §2

[3] = active ingredient 500 g/ha, observed 20th to 28th day
[4] = active ingredient 250 g/ha, observed 20th to 28th day
[5] = active ingredient 500 g/ha, observed day 21, 0 = non-treated, 100 = complete kill

SMILES	Growth controlling degree (%) Barnyardgrass (barnyardgrass [1]; [3]) [%]	Growth controlling degree (%) Crabgrass (crabgrass; [3]) [%]	Growth controlling degree (%) Green foxtail (green foxtail; [3]) [%]	Growth controlling degree (%) Redroot pigweed (redroot pigweed; [3]) [%]	Growth controlling degree (%) Prickly sida (prickly sida; [3]) [%]	Growth controlling degree (%) Velvetleaf (velvetleaf; [3]) [%]	Growth controlling degree (%) Rice (rice; [3]) [%]	Growth controlling degree (%) Corn (corn; [3]) [%]	Growth controlling degree (%) Soyabean (soybean; [3]) [%]	Growth controlling degree (%) Barnyardgrass (barnyardgrass [2]; active ingredient 250 g/ha) [%]	Growth controlling degree (%) Japanese bulrush (japanese bulrush; active ingredient 250 g/ha) [%]	Growth controlling degree (%) Rice (rice (var. Nihonbare); active ingredient 250 g/ha) [%]	Growth controlling degree (%) Japanese bulrush (japanese bulrush; active ingredient 500 g/ha) [%]	Growth controlling degree (%) Rice (rice (var. Nihonbare); active ingredient 500 g/ha) [%]	further results
CNC(=S)N(C)C(c1cnccc1C(F)(F)F)C(C)C (racemic) [Compound I-112]	20	70	50	70	40	10	40	10	10						
CC(C)C(c1cnccc1C(F)(F)F)N(C)C(=O)SCc1ccccc1 (racemic) [I-113]	60	70	95	70	60	60	30	20	10	95	30	0			
CC(C)C(c1cnccc1C(F)(F)F)N(C)C(=O)Cc1c(F)ccc(F)c1F (stereo not drawn) [Compound I-17]	100	98	100	50	90	80	30	20	20				90	35	Growth controlling degree (%) Japanese ribbon wapato (japanese ribbon wapato; active ingredient 500 g/ha): 90%
CC(C)C(c1cnccc1C(F)(F)F)N(C)C(=O)Cc1ccccc1F (stereo not drawn) [Compound I-25]													98	30	Growth controlling degree (%) Barnyardgrass (barnyardgrass [1]; [4]): 98%; Growth controlling degree (%) Crabgrass (crabgrass; [4]): 100%; Growth controlling degree (%) Green foxtail (green foxtail; [4]): 100%; Growth controlling degree (%) Redroot pigweed (redroot pigweed; [4]): 100%; Growth controlling degree (%) Prickly sida (prickly sida; [4]): 100%; Growth controlling degree (%) Velvetleaf (velvetleaf; [4]): 95%; Growth controlling degree (%) Rice (rice; [4]): 20%; Growth controlling degree (%) Corn (corn; [4]): 20%; Growth controlling degree (%) Soyabean (soybean; [4]): 10%; Growth controlling degree (%) Japanese ribbon wapato (japanese ribbon wapato; active ingredient 500 g/ha): 100%
CC(C)C(c1cnccc1C(F)(F)F)N(C)C(=O)Cc1ccc(C(F)(F)F)cc1F (stereo not drawn) [Compound I-105]	70	98	100	60	80	10	10	30	10	100	80	20			
CC(C)C(c1cnccc1C(F)(F)F)N(C)C(=O)C=Cc1cccnc1 (stereo not drawn) [Compound I-184]	30	98	40	30	80	50	20	0	20				90	10	Growth controlling degree (%) Barnyardgrass (barnyardgrass [2]; active ingredient 500 g/ha): 70%
CC(C)C(c1cnccc1C(F)(F)F)N(C)C(=O)Nc1ccccc1 (stereo not drawn) [Compound I-230]	50	98	70	60	30	0	10	40	0						
CCN(C(=O)Cc1ccc(C)cc1)C(c1cnccc1C(F)(F)F)C(C)C (stereo not drawn) [I-101]	70		70	80	30	30	0	10	0	100	98	10			Growth controlling degree (%) Japanese ribbon wapato (japanese ribbon wapato; active ingredient 250 g/ha): 40%
CC(C)C(c1cnccc1C(F)(F)F)N(C)C(=O)CCl (stereo not drawn) [I-168]	100	98	98	100	70	0	98	10	20						
Cc1ccc(C=CC(=O)N(C)C(c2cnccc2C(F)(F)F)C(C)C)cc1 (stereo not drawn) [I-181]	30	98	95	40		30	40	10	0				98	10	Growth controlling degree (%) Barnyardgrass (barnyardgrass [2]; active ingredient 500 g/ha): 95%; Growth controlling degree (%) Japanese ribbon wapato (japanese ribbon wapato; active ingredient 500 g/ha): 60%
CC(C)C(c1cnccc1C(F)(F)F)N(C)C(=O)COc1cccc(C(F)(F)F)c1 (stereo not drawn) [I-254]										100	98	0			Growth controlling degree (%) Barnyardgrass (barnyardgrass [1]; [5]): 90%; Growth controlling degree (%) Crabgrass (crabgrass; [5]): 98%; Growth controlling degree (%) Green foxtail (green foxtail; [5]): 100%; Growth controlling degree (%) Redroot pigweed (redroot pigweed; [5]): 50%; Growth controlling degree (%) Prickly sida (prickly sida; [5]): 90%; Growth controlling degree (%) Velvetleaf (velvetleaf; [5]): 70%; Growth controlling degree (%) Rice (rice; [5]): 10%; Growth controlling degree (%) Corn (corn; [5]): 10%; Growth controlling degree (%) Soyabean (soybean; [5]): 10%
